Key:
[1] = tested on: HepG2, Caco-2, MRC5 and HUVEC cells; test: MTT assay, comparison of cytotoxic effects at 1 μM on four cell types; type: cell-based, human; details: 24 h, Caco-2, HepG2, MRC5, HUVEC
Excerpt: We focused attention on 12β,6′-dihydroxycalotropin (1), 16α-hydroxycalotropin (2), 12β-hydroxycalactin (3), calotropin (4), and calactin (5), among those described by Hosseini et al., and tested their cytotoxic activity by a 3-(4,5-dime-thylthiazol-2-yl)-2,5-diphenylte-tetrazolium bromide (MTT) assay on two cancer cell lines (HepG2 and Caco-2), not previously employed, on an immortalised nontumoral cell line (MRC5) and normal primary cells (HUVEC).
Figure 2 Comparison of cytotoxic effects of P. tomentosa compounds on cancer cell lines (Caco-2 and HepG2), on an immortalised cell line (MRC5) and normal cells (HUVEC). Cells were treated for 24 h with 1 μM of each compound. Residual viability was measured by the MTT assay. Values are the means ± standard error (SE) of three independent experiments performed in triplicate. Statistical analysis was performed using the Student’s t-test. * p < 0.05 and ** p < 0.01 vs. cells treated with the vehicle (DMSO).
(§1) The human liver hepatocellular carcinoma cell line, HepG2, and the human adenocarcinoma of colon cell line, Caco-2, were cultured in Eagle’s Minimum Essential medium supplemented with 1% (v/v) non-essential amino acids, 0.2 mM L-glutamine, 50 units/mL penicillin, 50 μg/mL streptomycin and 10% (v/v) or 20% (v/v) fetal bovine serum (Sigma Aldrich, Milan, Italy) for HepG2 or Caco-2, respectively. The human embryonal lung fibroblast cell line, MRC5, was cultured in Dulbecco’s Modified Eagle medium (Sigma Aldrich, Milan, Italy) supplemented with 10% (v/v) fetal bovine serum, 0.2 mM L-glutamine, 50 units/mL penicillin and 50 μg/mL streptomycin. HUVEC cells were cultured in endothelial growth medium-2, supplemented with fetal bovine serum (2%), VEGF (0.1%), rH FGF-B (0.4%), rH EGF (0.1%), GA-1000 (0.1%), hydrocortisone (0.04%), R3-IGF-1 (0.1%), heparin (0.1%) and ascorbic acid (0.1%). Cells were maintained at 37 °C in a 5% CO2, 95% air-humidified atmosphere and passaged twice a week. Cell lines were obtained from Interlab Cell Line Collection, Istituto Nazionale per la Ricerca sul Cancro, Genoa, Italy. HUVEC were obtained from Lonza (Milan, Italy).
(§2) An MTT assay was used to analyse cell viability. Cells were seeded in 96 wells at the density of 2 × 10^4/cm^2 and, after 24 h, they were treated with P. tomentosa compounds or with the vehicle (DMSO). After a further 24 h of treatment, 0.5 mg/mL of MTT was added to the cell medium and incubated for 1.5 h at 37 °C. The resulting formazan crystals were dissolved in 100 μL of DMSO and absorbances were measured at 595 nm and 655 nm. The background signals at 655 nm were subtracted from 595 nm signals, and data were expressed as a percent of cell viability. The concentration of each compound that is required for 50% inhibition in vitro (IC50) was calculated as described in Husseini et al.. IC50 values were obtained for Caco-2, HepG2 and MRC5 cells by performing MTT assays with concentrations ranging from 0.01 μg/mL to 5 μg/mL.

HepG2 cells [2] = test: Scratch-wound-healing assay; type: cell-based, human; details: HepG2, 1 μM, 24, 48 and 72 h
Experimental: Cells were seeded at a density of 5 × 10^4 cells/well in 24-well plates and allowed to grow for 72 h, reaching confluence. Mitomycin C (10 μg/mL) was added to inhibit proliferation, and then a sterile 2–10 μL pipette tip was used to perform a vertical scratch in the monolayer of each well. Detached cells were removed by washing with phosphate-buffered saline. Then, 300 μL of fresh medium containing P. tomentosa compounds (1 μM) or vehicle was added to each well and incubated for 72 h. Images of migrating cells were taken at 0, 24, 48 and 72 h, by using an Olympus CKX41 fluorescent microscope (Olympus Italia srl, Segrate, Italy) and elaborated by the ImageJ software. For each scratch, wound width was calculated as the average distance between the edges in four different sites. Then, reductions in wound wights at 24, 48 and 72 h were expressed as % of the width at time zero.

HepG2 cells [3] = test: TUNEL assay; type: cell-based, human; details: HepG2, 1 μM, 24 h
Experimental: Microscopic evaluation of apoptosis was performed by a TUNEL assay, using a commercial kit (Fragment End Labelling (FragEL™), […]) DNA Fragmentation Detection Kit, Sigma-Aldrich, Milan, Italy) according to the manufacturer-provided protocol, with some modifications. Briefly, cells were seeded on glass cover slips placed in 24-well plates at a density of 3.5 × 10^3/cm^2 and, after 48 h, they were treated with 1 μΜ of each compound for a further 24 h. Cells were fixed in 3% paraformaldehyde for 10 min, permeabilised in 0.2% Triton X-100 for 5 min and treated with HCl 1.5 N for 8 min. Finally, cover slips were equilibrated in equilibration buffer (10 min) and incubated with label mix containing the TdT enzyme for 1 h at 37 °C, then mounted with mounting media. Microscope observations were performed by the AxioSkop 40 fluorescent microscope. Images were acquired with Axiocam MRc5 (Carl Zeiss MicroImaging, Inc., Jena, Germany).

Caco-2 cells = test: MTT cell viability assay, IC50 in Caco-2 cells; type: cell-based; details: Homo sapiens, 24 h, SE less than 10% of value
Experimental: as §1, §2

HepG2 cells [4] = test: MTT cell viability assay, IC50 in HepG2 cells; type: cell-based; details: Homo sapiens, 24 h, SE less than 10% of value
Experimental: as §1, §2

MRC5 cells = test: MTT cell viability assay, IC50 in MRC5 cells; type: cell-based; details: Homo sapiens, 24 h, SE less than 10% of value
Experimental: as §1, §2

HepG2 cells [5] = test: BrdU incorporation (proliferation) assay; type: cell-based, human; details: HepG2, 1 μM, 24 h
Experimental: Cell proliferation was analysed by a BrdU (Roche Diagnostics SpA, Monza, Italy) incorporation assay, as previously described. Briefly, HepG2 cells, seeded at adensity of 3 × 10^3/cm^2 on round glass cover slips, were treated for 24 h with P. tomentosa compounds at 1 μM. Then, BrdU was added to cell medium (final concentration, 100 μM) for 1 h. Cells were fixed (in 3% paraformaldehyde, 10 min), permeabilised (in 0.2% Triton X-100, 5 min) and treated with HCl 1.5 N (5 min). Finally, cover slips were incubated with a monoclonal antibody against BrdU (Sigma-Aldrich, Milan, Italy), 1:100, and with a TRITC-conjugated secondary antibody, 1:100. After staining with Hoechst, cover slips were mounted with Mowiol (Sigma, Milan, Italy). […] Images were acquired with Axiocam MRc5 and processed with ImageJ Launcher. The number of cells into S-phase was expressed as the ratio between the number of cells incorporating BrdU and the total number of cells.

HepG2 cells [6] = test: Transwell migration assay; type: cell-based, human; details: HepG2, 1 μM, 18 h
Experimental: Transwell filters (coated with collagen) in serum-free media containing 0.1% of BSA, with a PET membrane with 8 μm pores (BD Biosciences, Milan, Italy), were rehydrated for 2 h at 37 °C. HepG2 were seeded in the upper chambers at a density of 75 × 10^3 cells in MEM with 0.1% BSA and treated with or without 1 µM of Pergularia compounds. MEM−0.1%BSA, supplemented with 10% FBS, was added to the lower chamber as chemoattractant. Control wells without 10% FBS were included to assess random migration. After incubation at 37 °C in 5% CO2 for 18 h, the migrated cells were fixed with 4% paraformaldehyde for 5 min, permeabilised with methanol for 20 min and stained with crystal violet 0.5% for 15 min at room temperature. The cells on the lower side of the filter were allowed to dry before counting. Eight separate bright-field images were randomly acquired of each filter using an Olympus CKX41 Image Analyzer. The cells in each image were counted and analysed compared to control-transfected cells.

caspase-3 in HepG2 cells [7] = test: Caspase-3 colorimetric activity assay; type: cell-based, human; details: HepG2, 1 μM, 24 h
Experimental: To evaluate apoptosis, a caspase-3 colorimetric assay was performed. Briefly, HepG2 cell lines were seeded in plates of 60 mm diameter at a density of 3.5 × 10^4/cm^2 and, after 24 h, treated with P. tomentosa compounds (1 μM each) for 24 h. Then, cells were harvested in phosphate-buffered saline, collected by centrifugation and lysed in a buffer containing 50 mM HEPES, 0.1% CHAPS, 10 mM dithiothreitol, 100 mM NaCl, 1 mM EDTA and 10% sucrose. Proteins (30 μg) were incubated for 2 h at 37 °C in a reaction mixture containing the caspase-3 substrate (acetyl-Asp-Glu-Val-Asp, labelled with p-nitroanilide) (Sigma-aldrich, Milan, Italy) at a concentration of 0.2 mM. Finally, the release of free p-nitroanilide was monitored spectrophotometrically at 405 nm. Enzyme activity was expressed as percentage of absorption of treated cells versus vehicle-treated cells.

caspase-3 in HepG2 cells [8] = test: Western blot of cleaved caspase-3; type: cell-based, human; details: HepG2, 2 μM, 7 h, Western blot densitometry
Experimental: To analyse the protein levels of p53, caspase-3, GRP78, LC3 and p62, HepG2 cells were treated with P. tomentosa compounds (1 or 2 μM) or with DMSO for the indicated times; then, Western blot analyses were performed. Briefly, cells were lysed in RIPA buffer (20 mM Tris-HCl, pH 7.5, 150 mM NaCl, 1 mM EDTA, 1 mM dithiothreitol, 0.1% sodium dodecyl sulphate, 1% triton X-100, 1 mM orthovanadate, and a cocktail of inhibitors (Sigma-Aldrich, Milan, Italy)). After separation on a sodium dodecyl sulphate-polyacrylamide gel electrophoresis and transfer to a poly-vinylidene fluoride membrane (Euroclone, Milan, Italy), the following primary antibodies were used, at a dilution of 1:1000 in tris-buffered saline containing 1% non-fat dry milk, overnight at 4 °C: mouse anti-p53 antibody, mouse anti-MAP LC3 β antibody, mouse anti-p62 antibody (DBA, Milan, Italy), mouse anti-GRP78 antibody, and mouse anti-caspase 3 antibody (Thermo Fisher Scientific, Milan, Italy). For normalisation, a mouse anti-GAPDH antibody (Microtech, Naples, Italy) was used.

XBP1 in HepG2 cells = test: XBP1 splicing detection; type: cell-based, human; details: HepG2, 1 μM, 4 h
Experimental: To detect the unspliced and the spliced form of XBP1, we followed the protocol described by Martucciello et al.. After treatments for 4 h with 1 μM of each compound, or DMSO, or thapsigargin (1 μM), RNA was isolated and retro-transcripted. PCR analyses were performed with the following primers: 5′- […]-3′; 5′-[…]-3′. After 35 cycles (heating at 94 °C for 30 s, annealing at 58 °C for 45 s, and polymerisation at 72 °C for 60 s), amplified cDNA was visualised on 2.5% agarose gel, stained with an ethidium bromide solution.

## C[C@@]12C(C3=CC(=O)OC3)CC[C@]1(O)C1CCC3C[C@H]4O[C@@H]5O[C@H](CO)C[C@H](O)[C@]5(O)O[C@@H]4C[C@]3(C=O)C1C[C@H]2O (stereo partly drawn) [Compound 1, 12β,6′-dihydroxycalotropin]
[1]
  relative cytotoxicity (residual viability, MTT): intermediate cytotoxicity
HepG2 cells [2]
  effect on wound closure: interfered with the wound closure after 48 and 72 h
HepG2 cells [3]
  apoptotic nuclei (TUNEL): less evident
Caco-2 cells
  IC50: 1540 nM
HepG2 cells [4]
  IC50: 2610 nM
MRC5 cells
  IC50: 2210 nM
HepG2 cells [5]
  effect on BrdU incorporation / cell cycle progression: slightly (but not significantly) reduced BrdU incorporation
HepG2 cells [6]
  effect on transwell migration: reduce migration

## C[C@@H]1C[C@H](O)[C@]2(O)O[C@@H]3C[C@@]4(C=O)C(CCC5C4CC[C@]4(C)C(C6=CC(=O)OC6)[C@H](O)C[C@]54O)C[C@H]3O[C@@H]2O1 (stereo partly drawn) [Compound 2, 16α-hydroxycalotropin]
[1]
  relative cytotoxicity (residual viability, MTT): intermediate cytotoxicity
HepG2 cells [2]
  effect on wound closure: interfered with the wound closure at 72 h only
HepG2 cells [3]
  apoptotic nuclei (TUNEL): less evident
Caco-2 cells
  IC50: 2430 nM
HepG2 cells [4]
  IC50: 2340 nM
MRC5 cells
  IC50: 2320 nM
HepG2 cells [5]
  effect on BrdU incorporation / cell cycle progression: significantly affected cell cycle progression

## C[C@@H]1C[C@@H](O)[C@]2(O)O[C@@H]3C[C@@]4(C=O)C(CCC5C4C[C@@H](O)[C@]4(C)C(C6=CC(=O)OC6)CC[C@]54O)C[C@H]3O[C@@H]2O1 (stereo partly drawn) [Compound 3, 12β-hydroxycalactin]
[1]
  relative cytotoxicity (residual viability, MTT): less cytotoxic
HepG2 cells [2]
  effect on wound closure: had an effect at 48 h only
HepG2 cells [3]
  apoptotic nuclei (TUNEL): undetectable
Caco-2 cells
  IC50: 4510 nM
HepG2 cells [4]
  IC50: 6280 nM
caspase-3 in HepG2 cells [7]
  caspase-3 activity: did not seem to affect enzyme activity
MRC5 cells
  IC50: 5980 nM
HepG2 cells [5]
  effect on BrdU incorporation / cell cycle progression: slightly (but not significantly) reduced BrdU incorporation
HepG2 cells [6]
  effect on transwell migration: reduce migration

## C[C@@H]1C[C@H](O)[C@]2(O)O[C@@H]3C[C@@]4(C=O)[C@@H](CC[C@@H]5[C@@H]4CC[C@]4(C)[C@@H](C6=CC(=O)OC6)CC[C@]54O)C[C@H]3O[C@@H]2O1 [Compound 4, calotropin]
[1]
  relative cytotoxicity (residual viability, MTT): most cytotoxic
HepG2 cells [2]
  effect on wound closure: not affect cell migration, at any time
HepG2 cells [3]
  apoptotic nuclei (TUNEL): occurrence of apoptotic nuclei
Caco-2 cells
  IC50: 767 nM
HepG2 cells [4]
  IC50: 830 nM
MRC5 cells
  IC50: 424 nM
HepG2 cells [5]
  effect on BrdU incorporation / cell cycle progression: significantly affected cell cycle progression
  reduction of number of cells that incorporated BrdU compared to the vehicle: about 40%
caspase-3 in HepG2 cells [8]
  cleaved caspase-3 (caspase-3 activation): most active

## C/C=C(/C)C(=O)O[C@H]1C(C)=C2[C@H]([C@@H]1OC(=O)CCCCCCC)[C@@](C)(OC(C)=O)C[C@H](OC(=O)CCC)[C@@]1(O)[C@H]2OC(=O)[C@@]1(C)O [thapsigargin]
XBP1 in HepG2 cells
  XBP1 splicing: appearance of the spliced form
